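Dose response: 5 concentrations. Exposure: 48 h. Format: 96-well plates. Endpoint: linear interpolation; highest concentration if not reached. The concentration for 50% growth inhibition is given as GI50. TGI denotes the concentration required for complete inhibition of growth.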
Assays:
Assay in all cases: DTP human tumour cell line panel, 48 h
A549 NSCLC = system: A549 NSCLC
HOP-92 NSCLC = system: HOP-92 NSCLC
SNB-19 CNS = system: SNB-19 CNS
OVCAR-5 ovarian = system: OVCAR-5 ovarian
MOLT-4 leukemia = system: MOLT-4 leukemia
COLO 205 colon = system: COLO 205 colon
TK-10 renal = system: TK-10 renal
HL-60(TB) leukemia = system: HL-60(TB) leukemia
KM12 colon = system: KM12 colon
MDA-MB-231 breast = system: MDA-MB-231 breast

SMILES	TGI (A549 NSCLC)	TGI (HOP-92 NSCLC)	TGI (SNB-19 CNS)	TGI (OVCAR-5 ovarian)	TGI (MOLT-4 leukemia)	TGI (COLO 205 colon)	TGI (TK-10 renal)	TGI (HL-60(TB) leukemia)	TGI (KM12 colon)	GI50 (A549 NSCLC)	GI50 (HOP-92 NSCLC)	GI50 (SNB-19 CNS)	GI50 (OVCAR-5 ovarian)	GI50 (MOLT-4 leukemia)	GI50 (COLO 205 colon)	GI50 (TK-10 renal)	GI50 (HL-60(TB) leukemia)	GI50 (MDA-MB-231 breast)	TGI (MDA-MB-231 breast)	GI50 (KM12 colon)
COC(=O)C1C(C(=O)OC)C2C(=O)C3C(C(=O)OC)C(C(=O)OC)C3C(=O)C12 (centres undefined)	> 100 µM	> 100 µM	> 100 µM	> 100 µM	> 100 µM	> 100 µM	> 100 µM	> 100 µM	> 100 µM											
COc1cc([C@@H]2c3cc4c(cc3[C@@H](NC(=O)c3ccc(C#N)cc3)C3COC(=O)[C@@H]32)OCO4)cc(OC)c1O (some centres undefined)	1.64 µM	22.9 µM	4.65 µM	8.53 µM	12.4 µM	16.4 µM	4.86 µM	11.1 µM	3.2 µM											
COc1cc(Nc2cnc3ccc(C(F)(F)F)cc3n2)cc(OC)c1OC	> 100 µM	> 100 µM	> 100 µM	> 100 µM	> 100 µM	> 100 µM	> 100 µM	> 100 µM												
COc1ccc2c(c1)C(=O)c1c-2c(Nc2ccccc2OC)nc2ccccc12	> 100 µM	> 100 µM	> 100 µM	> 100 µM	> 100 µM	> 100 µM	> 100 µM	> 100 µM	> 100 µM	> 100 µM	26.4 µM	> 100 µM	> 100 µM	> 100 µM	> 100 µM	> 100 µM	> 100 µM	> 100 µM	> 100 µM	> 100 µM
O=C1NC(=O)c2c1n(Cc1ccccc1)c(=O)n2Cc1ccccc1	> 100 µM	> 100 µM	> 100 µM	> 100 µM	> 100 µM	> 100 µM	> 100 µM	> 100 µM	> 100 µM											
Cc1ccc2c(c1)CN1c3ccc(C)cc3CN2C1c1ccccc1O	> 100 µM	> 100 µM		> 100 µM	> 100 µM	> 100 µM	88.1 µM	> 100 µM	> 100 µM											
NNC(=O)C(=O)N/N=C1/CCCC1C(=O)CCC(=O)Nc1ccc(Cl)cc1 (centres undefined)	> 100 µM	> 100 µM	> 100 µM	> 100 µM	> 100 µM	> 100 µM	> 100 µM	> 100 µM	> 100 µM											
O=C1CC(c2ccccc2)Oc2ccccc21 (centres undefined)		62.8 µM	83.4 µM		34.4 µM	> 100 µM	> 100 µM	49.5 µM	> 100 µM										94 µM	
O=C(Nc1cccc(-n2cc(-c3ccncc3)c(-c3cc(O)cc(Cl)c3)n2)c1)c1ccc(N2CCOCC2)c(C(F)(F)F)c1	18 µM		33.6 µM	39.6 µM	4.38 µM	64.5 µM		3.04 µM	> 100 µM	1.64 µM		3.33 µM	14.8 µM	1.11 µM	17.5 µM		0.81 µM	0.327 µM	1.66 µM	1.21 µM
OCc1cc2c(cn1)[nH]c1ccc(NCc3ccccc3)cc12	> 100 µM	57.3 µM	> 100 µM	> 100 µM	55.8 µM	37 µM	85.8 µM	31.4 µM	43.3 µM											
CC1=N/C(=C\c2ccc(/C=C3/N=C(C)OC3=O)cc2)C(=O)O1	> 100 µM	> 100 µM	> 100 µM			> 100 µM	> 100 µM		> 100 µM											
CC1(C)OC[C@@H]([C@@]2(CO[Si](c3ccccc3)(c3ccccc3)C(C)(C)C)CC=CC(=O)O2)O1	> 100 µM	26.2 µM	97.5 µM	49.6 µM	> 100 µM	> 100 µM	33 µM		56.3 µM	5.27 µM	6.72 µM	15.5 µM	16.7 µM	8.94 µM	8.69 µM	11.7 µM		20.6 µM	> 100 µM	4.99 µM
O=c1/c(=C/c2ccccc2[N+](=O)[O-])sc2nnc(-c3cccnc3)n12	> 100 µM	> 100 µM	32.1 µM	> 100 µM	> 100 µM		> 100 µM	> 100 µM	> 100 µM											
COC(=O)OC1C(O[C@H]2C[C@H]3[C@@H]4CC=C5C[C@@H](O)CC[C@]5(C)[C@H]4CC[C@]3(C)[C@H]2[C@H](C)C(=O)CCC(C)C)OCC(O)C1OC1OCC(O)C(O)C1OC(=O)c1ccc(OC)cc1 (some centres undefined)	5.24 µM	1.87 µM	2.24 µM	2.63 µM	0.0178 µM	0.253 µM	17.5 µM		9.86 µM	0.0125 µM	0.0492 µM	0.0155 µM	0.0982 µM	0.00695 µM	0.034 µM	0.496 µM		0.082 µM	4.46 µM	0.039 µM
FC(F)(F)Oc1cccc(-c2cc(NCCCCCCNc3cc(-c4cccc(OC(F)(F)F)c4)nc4ccc(N5CCCC5)cc34)c3cc(N4CCCC4)ccc3n2)c1	4.49 µM	3.18 µM	2.98 µM	3.18 µM			3.37 µM		3.27 µM	2.05 µM	1.54 µM	1.55 µM	1.76 µM			1.78 µM		1.72 µM	3.16 µM	1.74 µM
CCc1ccccc1NC(=O)c1cccc([N+](=O)[O-])c1O	> 100 µM	45.4 µM	> 100 µM	65.1 µM	> 100 µM	31.4 µM		> 100 µM	48.6 µM											
CSC1=Nc2c(c(C)c(C)n2COC(CO)CO)C2=NC(=O)CN12	> 100 µM	> 100 µM	> 100 µM	> 100 µM	> 100 µM	> 100 µM	> 100 µM		> 100 µM	> 100 µM	> 100 µM	> 100 µM	> 100 µM	> 100 µM	> 100 µM	> 100 µM		> 100 µM	> 100 µM	> 100 µM
Cc1ccc(S(=O)(=O)OCC/C(=C\[Si](C)(C)C)c2ccccc2)cc1	> 100 µM	> 100 µM	> 100 µM	> 100 µM	> 100 µM	> 100 µM	> 100 µM	> 100 µM	> 100 µM											

Reference: PubChem BioAssay (NCI)
